The values below come from ChEMBL document CHEMBL5528073, “Design, Synthesis, and Biological Evaluation of Pierardine Derivatives as Novel Brain-Penetrant and In Vivo Potent NMDAR-GluN2B Antagonists for Ischemic Stroke Treatment” (J Med Chem, 2024).

By Ki is commonly meant a measure of affinity in units of concentration, obtained from inhibition or displacement. One may read the IC50 as the concentration that gives 50% inhibition.

Each structure is given as a SMILES string.

One series deals with Glutamate receptor ionotropic, NMDA 2B (Rattus norvegicus, UniProt Q00960).
Chain of Glutamate receptor ionotropic, NMDA 2B (Q00960 whole entry): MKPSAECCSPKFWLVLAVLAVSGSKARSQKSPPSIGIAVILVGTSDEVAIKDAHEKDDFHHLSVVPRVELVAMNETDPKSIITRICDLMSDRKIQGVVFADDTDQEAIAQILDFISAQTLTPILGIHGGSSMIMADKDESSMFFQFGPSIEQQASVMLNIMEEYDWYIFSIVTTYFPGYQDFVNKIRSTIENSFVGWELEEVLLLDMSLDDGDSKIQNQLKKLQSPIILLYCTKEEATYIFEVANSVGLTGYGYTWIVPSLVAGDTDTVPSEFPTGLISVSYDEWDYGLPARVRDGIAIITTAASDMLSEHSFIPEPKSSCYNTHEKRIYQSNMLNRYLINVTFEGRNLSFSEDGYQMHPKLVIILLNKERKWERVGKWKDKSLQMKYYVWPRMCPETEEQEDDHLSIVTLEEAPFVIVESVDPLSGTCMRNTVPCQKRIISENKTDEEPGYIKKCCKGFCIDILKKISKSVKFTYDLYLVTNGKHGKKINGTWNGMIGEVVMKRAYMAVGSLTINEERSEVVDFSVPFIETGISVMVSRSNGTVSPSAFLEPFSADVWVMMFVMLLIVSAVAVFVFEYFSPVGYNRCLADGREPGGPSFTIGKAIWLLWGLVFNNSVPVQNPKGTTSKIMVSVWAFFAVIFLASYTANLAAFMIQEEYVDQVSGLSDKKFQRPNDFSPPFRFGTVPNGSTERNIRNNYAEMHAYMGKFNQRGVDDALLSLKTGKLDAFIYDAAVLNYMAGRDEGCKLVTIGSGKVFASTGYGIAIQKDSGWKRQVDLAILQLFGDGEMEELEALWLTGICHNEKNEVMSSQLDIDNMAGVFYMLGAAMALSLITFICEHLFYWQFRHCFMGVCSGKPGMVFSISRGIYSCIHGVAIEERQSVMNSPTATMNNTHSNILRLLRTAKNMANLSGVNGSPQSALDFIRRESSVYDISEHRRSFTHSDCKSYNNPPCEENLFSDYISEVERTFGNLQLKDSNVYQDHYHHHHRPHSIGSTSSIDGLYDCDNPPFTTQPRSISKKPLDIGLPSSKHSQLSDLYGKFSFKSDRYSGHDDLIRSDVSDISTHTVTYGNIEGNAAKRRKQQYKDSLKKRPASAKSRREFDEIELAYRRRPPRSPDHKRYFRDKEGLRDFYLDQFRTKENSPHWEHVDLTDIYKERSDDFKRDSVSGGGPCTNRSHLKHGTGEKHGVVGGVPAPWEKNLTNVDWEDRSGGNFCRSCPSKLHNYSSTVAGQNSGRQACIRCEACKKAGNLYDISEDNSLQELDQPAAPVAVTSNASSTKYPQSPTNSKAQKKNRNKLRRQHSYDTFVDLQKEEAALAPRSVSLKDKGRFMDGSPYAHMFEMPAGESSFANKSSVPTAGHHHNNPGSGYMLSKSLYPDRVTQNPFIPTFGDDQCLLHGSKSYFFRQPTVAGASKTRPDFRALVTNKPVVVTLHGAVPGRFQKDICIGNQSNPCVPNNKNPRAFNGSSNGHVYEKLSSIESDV
Assay: not given
Details: not given; call rule not given here
`O=C1OC(CCCN2CCN(C(=O)c3ccccc3)CC2)c2ccccc21` (stereo unspecified) showed a Ki of 32.8 nM.

In the case of `Cc1ccc(C(=O)N2CCN(CCCC3OC(=O)c4ccccc43)CC2)cc1` (stereo unspecified), the Ki amounted to 1.34 nM.

Consider `Cc1cccc(N2CCN(CCCC3OC(=O)c4ccccc43)CC2)c1` (stereo unspecified), for which the Ki worked out at 36.8 nM.

The compound `COc1ccccc1N1CCN(CCCC2OC(=O)c3ccccc32)CC1` (stereo unspecified) registered a Ki of 8.15 nM.

Compound `CS(=O)(=O)Nc1ccc2c(c1)C(=O)OC2CCCN1CCN(C(=O)c2ccc(C(F)(F)F)cc2)CC1` (stereo unspecified) gave a Ki of 15.2 nM.

As to `O=C1OC(CCCN2CCN(C(=O)c3ccc(Cl)cc3)CC2)c2ccccc21` (stereo unspecified), the inhibitory constant (Ki) was 12.7 nM.

Turning to `O=C1OC(CCCN2CCN(C(=O)c3nc4ccccc4[nH]3)CC2)c2ccccc21` (stereo unspecified), affinity was put at a Ki of 73.4 nM.

In the case of `O=C1OC(CCCN2CCN(c3ccc(F)cc3)CC2)c2ccccc21` (stereo unspecified), the Ki came out at 9.39 nM.

The compound `Cc1ccc(C(=O)N2CCN(CCCC3OC(=O)c4cc(NS(C)(=O)=O)ccc43)CC2)cc1` (stereo unspecified) displayed an inhibition constant Ki of 13.2 nM.

The compound `O=C1OC(CCCN2CCN(C(=O)c3cc4ccccc4[nH]3)CC2)c2ccccc21` (stereo unspecified) had a Ki of 7.97 nM.

`COc1cccc(C(=O)N2CCN(CCCC3OC(=O)c4ccccc43)CC2)c1` (stereo unspecified) had a Ki of 34.6 nM.

Compound `O=C1OC(CCCN2CCN(C(=O)c3c[nH]cn3)CC2)c2ccccc21` (stereo unspecified) returned a Ki of 13.4 nM.

`O=C1OC(CCCN2CCN(c3ccc(Br)cc3)CC2)c2ccccc21` (stereo unspecified) showed a Ki of 26.5 nM.

`O=C1OC(CCCN2CCN(C(=O)c3cc4cccnc4[nH]3)CC2)c2ccccc21` (stereo unspecified) gave a Ki of 49.7 nM.

For `O=C1OC(CCCN2CCN(c3ccc(O)cc3)CC2)c2ccccc21` (stereo unspecified), the Ki is 26.8 nM.

As to `O=C1OC(CCCN2CCN(c3cccc(Cl)c3)CC2)c2ccccc21` (stereo unspecified), the Ki turned out to be 20.8 nM.

The compound `O=C1OC(CCCN2CCN(C(=O)c3cc4cccc(Cl)c4[nH]3)CC2)c2cc(O)ccc21` (stereo unspecified) yielded a Ki of 1.12 nM.

`CN(C)CCCC1OC(=O)c2ccccc21` (stereo unspecified) yielded a Ki of 114 nM.

For the compound `COc1ccc2cc(C(=O)N3CCN(CCCC4OC(=O)c5ccccc54)CC3)[nH]c2c1` (stereo unspecified), the Ki amounted to 53.2 nM.

In turn, `Cc1ccc(C(=O)N2CCN(CCCC3OC(=O)c4cc(O)ccc43)CC2)cc1` (stereo unspecified) had an inhibitory constant (Ki) of 36.2 nM.

Compound `COc1ccc2[nH]c(C(=O)N3CCN(CCCC4OC(=O)c5ccccc54)CC3)cc2c1` (stereo unspecified) showed a Ki of 26 nM.

Regarding `O=C1OC(CCCN2CCN(C(=O)c3cccnc3)CC2)c2ccccc21` (stereo unspecified), affinity was put at a Ki of 23.5 nM.

Consider `O=C1OC(CCCN2CCN(C(=O)c3ccccn3)CC2)c2ccccc21` (stereo unspecified), for which the Ki was 45.1 nM.

In the case of `O=C1OC(CCCN2CCN(C(=O)c3cc[nH]c3)CC2)c2ccccc21` (stereo unspecified), the affinity, expressed as Ki, was 13 nM.

`O=C1OC(CCCN2CCN(C(=O)c3ccc(F)cc3)CC2)c2ccccc21` (stereo unspecified): the Ki came to 31.1 nM.

In turn, `O=C1OC(CCCN2CCN(C(=O)c3cc4ccc(Cl)cc4[nH]3)CC2)c2ccccc21` (stereo unspecified) had a Ki of 16.7 nM.

In turn, `COc1ccc(N2CCN(CCCC3OC(=O)c4ccccc43)CC2)cc1` (stereo unspecified) showed an inhibitory constant (Ki) of 24.3 nM.

With `O=C1OC(CCCN2CCN(C(=O)c3ccc(C(F)(F)F)cc3)CC2)c2cc(O)ccc21` (stereo unspecified), affinity was put at a Ki of 8.22 nM.

The compound `O=C1OC(CCCN2CCN(c3ccc([N+](=O)[O-])cc3)CC2)c2ccccc21` (stereo unspecified) returned a Ki of 3.77 nM.

In turn, `O=C(O)c1ccccc1C(O)CCCN1CCN(C(=O)C2Cc3cccc(Cl)c3N2)CC1` (stereo unspecified) displayed an inhibitory constant (Ki) of 1.28 nM.

Consider `Cc1cccc2cc(C(=O)N3CCN(CCCC4OC(=O)c5ccccc54)CC3)[nH]c12` (stereo unspecified), for which the Ki amounted to 27.9 nM.

As for `O=C1OC(CCCN2CCN(C(=O)c3ccc(C(F)(F)F)cc3)CC2)c2ccccc21` (stereo unspecified), the affinity, expressed as Ki, was 2.6 nM.

`O=C1OC(CCCN2CCN(c3ccc(Cl)cc3)CC2)c2ccccc21` (stereo unspecified) showed a Ki of 25.6 nM.

The compound `CS(=O)(=O)Nc1ccc2c(c1)C(=O)OC2CCCN1CCN(c2ccc(O)cc2)CC1` (stereo unspecified) returned an inhibition constant Ki of 19.6 nM.

Compound `O=C1OC(CCCN2CCN(c3ccc(C(F)(F)F)cc3)CC2)c2ccccc21` (stereo unspecified) showed a Ki of 42.9 nM.

`O=C1OC(CCCN2CCN(c3ccccc3C(F)(F)F)CC2)c2ccccc21` (stereo unspecified) came in with a Ki of 25.9 nM.

Regarding `O=C1OC(CCCN2CCN(c3ccccc3)CC2)c2ccccc21` (stereo unspecified), the affinity, expressed as Ki, was 13.9 nM.

Regarding `Cc1ccc(N2CCN(CCCC3OC(=O)c4ccc(O)cc43)CC2)cc1` (stereo unspecified), the Ki was 15.1 nM.

Take `COc1cccc(N2CCN(CCCC3OC(=O)c4ccccc43)CC2)c1` (stereo unspecified): the Ki was determined as 30.9 nM.

The compound `O=C1OC(CCCN2CCN(c3ccccc3F)CC2)c2ccccc21` (stereo unspecified) displayed a Ki of 23.6 nM.

For `O=C1OC(CCCN2CCN(C(=O)c3ccc(C(F)(F)F)cc3)CC2)c2ccc(O)cc21` (stereo unspecified), affinity was put at a Ki of 32.1 nM.

`CC(C)c1ccc(N2CCN(CCCC3OC(=O)c4ccccc43)CC2)cc1` (stereo unspecified): the Ki turned out to be 2.89 nM.

Compound `O=C1OC(CCCN2CCN(C(=O)c3cc4ccncc4[nH]3)CC2)c2ccccc21` (stereo unspecified) came in with a Ki of 25.4 nM.

The compound `O=C1OC(CCCN2CCN(c3ccc(O)cc3)CC2)c2ccc(O)cc21` (stereo unspecified) came in with a Ki of 6.26 nM.

Compound `COc1ccc(C(=O)N2CCN(CCCC3OC(=O)c4ccccc43)CC2)cc1` (stereo unspecified) yielded a Ki of 46.7 nM.

For the compound `CS(=O)(=O)Nc1ccc2c(c1)C(=O)OC2CCCN1CCN(C(=O)c2cc3cccc(Cl)c3[nH]2)CC1` (stereo unspecified), the affinity, expressed as Ki, was 4.23 nM.

For `Cc1ccccc1N1CCN(CCCC2OC(=O)c3ccccc32)CC1` (stereo unspecified), the Ki came to 11.3 nM.

The compound `O=C1OC(CCCN2CCN(C(=O)c3cc4cnccc4[nH]3)CC2)c2ccccc21` (stereo unspecified) registered a Ki of 32.8 nM.

Compound `O=C1OC(CCCN2CCN(C(=O)c3ccncc3)CC2)c2ccccc21` (stereo unspecified) had a Ki of 12.1 nM.

As for `Cc1ccc(N2CCN(CCCC3OC(=O)c4cc(NS(C)(=O)=O)ccc43)CC2)cc1` (stereo unspecified), the affinity, expressed as Ki, was 12.4 nM.

On to `O=C1OC(CCCN2C[C@H]3C[C@@]3(c3ccc(Cl)c(Cl)c3)C2)c2ccccc21` (stereo partly specified), for which the Ki was 33.6 nM.

Compound `Cc1ccc(N2CCN(CCCC3OC(=O)c4ccccc43)CC2)cc1` (stereo unspecified) gave a Ki of 6.12 nM.

On to `Cc1ccc(N2CCN(CCCC3OC(=O)c4ccccc43)CC2)cc1C` (stereo unspecified), for which the Ki is 29.2 nM.

Tested on in another series: not listed separately
The experiment in a line: Neuroprotective activity against NMDA-induced cell injury in rat Hippocampal neuron cells assessed as cell viability at 0.1 uM preincubated with compound for 6 hrs followed by NMDA-addition and measured after 0.5 hrs by MTT assay relative to control. To be noted: Hippocampal neurone, 6.5 h, read-out: Activity. Background: Formazan colour is commonly taken as a measure of viable cells.
`CC(C(O)c1ccc(O)cc1)N1CCC(Cc2ccccc2)CC1` (stereo unspecified) [IFENPRODIL]: the viability at 0.1 µM came out at 65.9%.

Tested on in a further series: not listed separately
Kind of series: Cytotoxicity against HEK293 cells assessed as reduction in cell viability incubated for 48 hrs by CCK-8 assay. To be noted: human.
Take `CN(C)CCCC1OC(=O)c2ccccc21` (stereo unspecified): the IC50 at 48 h is more than 300000 nM.

Tested on in a further series: not listed separately
The experiment in a line: Cytotoxicity against mouse primary neuron cells assessed as reduction in cell viability incubated for 48 hrs by CCK-8 assay.
Details: not given
On to `CN(C)CCCC1OC(=O)c2ccccc21` (stereo unspecified), for which the IC50 at 48 h was more than 300000 nM.

The next series deals with Voltage-gated inwardly rectifying potassium channel KCNH2 (Homo sapiens, UniProt Q12809). The experiment in a line: Inhibition of hERG expressed in HEK293 cells by whole-cell manual patch-clamp assay. It is filed as toxicity, cell-based.
Details: not given
In general terms: The hERG channel carries a current that helps repolarise heart muscle cells.
As for `O=C1OC(CCCN2CCN(C(=O)c3cc4cccc(Cl)c4[nH]3)CC2)c2cc(O)ccc21` (stereo unspecified), the “inhibition (INH)” value is reported as “Active”.

Another series deals with Glutamate NMDA receptor; GRIN1/GRIN2B (Homo sapiens, UniProt Q05586+Q13224).
Chain of Glutamate NMDA receptor; GRIN1/GRIN2B (Q13224 whole entry, other chains not shown): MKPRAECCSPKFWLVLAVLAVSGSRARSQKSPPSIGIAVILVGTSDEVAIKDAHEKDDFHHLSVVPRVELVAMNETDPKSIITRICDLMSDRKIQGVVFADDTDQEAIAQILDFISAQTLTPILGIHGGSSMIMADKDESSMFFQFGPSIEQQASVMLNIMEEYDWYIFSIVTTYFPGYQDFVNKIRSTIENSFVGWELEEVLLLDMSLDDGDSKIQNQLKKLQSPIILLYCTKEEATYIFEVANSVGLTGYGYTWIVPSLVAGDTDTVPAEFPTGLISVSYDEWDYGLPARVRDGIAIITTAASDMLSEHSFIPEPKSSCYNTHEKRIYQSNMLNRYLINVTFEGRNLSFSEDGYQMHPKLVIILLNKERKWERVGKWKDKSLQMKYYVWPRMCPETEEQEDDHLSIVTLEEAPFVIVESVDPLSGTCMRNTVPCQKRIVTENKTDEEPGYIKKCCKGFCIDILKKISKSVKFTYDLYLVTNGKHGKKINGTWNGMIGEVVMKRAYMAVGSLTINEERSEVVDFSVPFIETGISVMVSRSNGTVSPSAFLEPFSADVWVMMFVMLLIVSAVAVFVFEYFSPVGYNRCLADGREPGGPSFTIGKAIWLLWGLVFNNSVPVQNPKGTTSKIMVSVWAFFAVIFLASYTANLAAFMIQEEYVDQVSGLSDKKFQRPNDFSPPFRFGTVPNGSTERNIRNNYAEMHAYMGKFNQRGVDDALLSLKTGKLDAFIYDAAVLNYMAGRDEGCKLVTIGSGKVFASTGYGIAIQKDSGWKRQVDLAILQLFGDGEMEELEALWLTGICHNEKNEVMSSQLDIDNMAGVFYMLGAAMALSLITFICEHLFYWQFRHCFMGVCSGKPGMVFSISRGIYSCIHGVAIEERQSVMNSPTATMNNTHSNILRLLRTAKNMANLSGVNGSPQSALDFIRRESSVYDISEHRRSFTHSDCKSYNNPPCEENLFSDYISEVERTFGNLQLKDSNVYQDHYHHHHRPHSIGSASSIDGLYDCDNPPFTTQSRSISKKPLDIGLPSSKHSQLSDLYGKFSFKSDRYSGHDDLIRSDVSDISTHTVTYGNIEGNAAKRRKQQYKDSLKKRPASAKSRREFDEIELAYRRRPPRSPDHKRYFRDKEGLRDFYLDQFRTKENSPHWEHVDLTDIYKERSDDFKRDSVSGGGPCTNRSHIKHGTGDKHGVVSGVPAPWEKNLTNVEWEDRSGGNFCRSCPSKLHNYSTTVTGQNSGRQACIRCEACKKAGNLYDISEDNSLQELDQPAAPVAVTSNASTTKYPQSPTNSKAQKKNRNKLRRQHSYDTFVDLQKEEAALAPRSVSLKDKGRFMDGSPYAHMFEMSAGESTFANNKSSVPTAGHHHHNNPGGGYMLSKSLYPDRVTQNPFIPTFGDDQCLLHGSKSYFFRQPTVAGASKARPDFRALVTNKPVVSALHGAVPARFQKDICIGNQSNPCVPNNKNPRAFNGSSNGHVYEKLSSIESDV
Assay: not given
Details: not given
`O=C1OC(CCCN2CCN(C(=O)c3cc4cccc(Cl)c4[nH]3)CC2)c2cc(O)ccc21` (stereo unspecified) had a concentration for half-maximal inhibition (IC50) of 183 nM.

On to `CN(C)CCCC1OC(=O)c2ccccc21` (stereo unspecified), for which the IC50 was more than 10000 nM.

The target in the next series is Glutamate receptor ionotropic, NMDA 2B (Rattus norvegicus) (UniProt Q00960). The experiment in a line: Antagonist activity at rat GluN2B NMDA receptor at 50 nM incubated for 120 mins by competitive binding assay relative to control. Further details: scale not given: the % may be the effect or the level left.
Chain of Glutamate receptor ionotropic, NMDA 2B (Rattus norvegicus) (Q00960 27-1482 limits assumed): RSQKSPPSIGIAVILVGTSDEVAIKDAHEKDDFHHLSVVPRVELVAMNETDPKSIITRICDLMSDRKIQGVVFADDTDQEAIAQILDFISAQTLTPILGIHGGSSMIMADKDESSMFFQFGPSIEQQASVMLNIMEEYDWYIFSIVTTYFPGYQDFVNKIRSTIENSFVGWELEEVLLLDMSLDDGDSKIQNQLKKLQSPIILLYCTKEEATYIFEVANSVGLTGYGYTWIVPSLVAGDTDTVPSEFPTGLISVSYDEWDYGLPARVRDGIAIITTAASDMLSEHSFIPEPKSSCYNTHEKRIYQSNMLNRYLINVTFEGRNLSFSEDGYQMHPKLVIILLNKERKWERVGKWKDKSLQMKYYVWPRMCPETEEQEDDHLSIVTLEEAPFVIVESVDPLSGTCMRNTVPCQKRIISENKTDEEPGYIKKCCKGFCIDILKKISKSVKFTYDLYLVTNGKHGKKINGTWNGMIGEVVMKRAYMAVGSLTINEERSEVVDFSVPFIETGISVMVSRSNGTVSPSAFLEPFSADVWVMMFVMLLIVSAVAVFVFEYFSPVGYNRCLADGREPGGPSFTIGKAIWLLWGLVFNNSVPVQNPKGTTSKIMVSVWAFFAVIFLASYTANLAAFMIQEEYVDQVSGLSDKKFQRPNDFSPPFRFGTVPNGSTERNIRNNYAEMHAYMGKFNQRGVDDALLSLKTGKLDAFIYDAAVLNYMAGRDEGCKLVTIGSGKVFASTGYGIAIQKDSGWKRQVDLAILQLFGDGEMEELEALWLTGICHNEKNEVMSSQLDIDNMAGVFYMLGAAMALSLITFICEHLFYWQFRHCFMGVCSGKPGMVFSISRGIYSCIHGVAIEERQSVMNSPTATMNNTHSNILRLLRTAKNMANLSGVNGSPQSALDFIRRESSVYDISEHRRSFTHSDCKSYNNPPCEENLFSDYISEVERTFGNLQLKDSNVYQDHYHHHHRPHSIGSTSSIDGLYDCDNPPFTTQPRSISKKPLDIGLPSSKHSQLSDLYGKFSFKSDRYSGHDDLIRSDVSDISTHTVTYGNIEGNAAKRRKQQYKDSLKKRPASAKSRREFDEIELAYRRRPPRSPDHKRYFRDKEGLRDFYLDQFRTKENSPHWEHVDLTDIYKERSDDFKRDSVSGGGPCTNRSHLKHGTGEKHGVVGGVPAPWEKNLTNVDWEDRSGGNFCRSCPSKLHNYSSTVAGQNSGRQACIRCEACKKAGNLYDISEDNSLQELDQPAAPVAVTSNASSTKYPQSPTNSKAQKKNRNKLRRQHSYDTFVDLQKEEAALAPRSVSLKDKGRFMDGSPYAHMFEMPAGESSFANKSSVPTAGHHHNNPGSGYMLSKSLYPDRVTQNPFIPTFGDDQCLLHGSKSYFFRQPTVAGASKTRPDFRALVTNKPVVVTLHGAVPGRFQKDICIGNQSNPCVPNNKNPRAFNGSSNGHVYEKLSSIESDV
Details: not given
`O=C1OC(CCCN2CCN(c3csc4ccccc34)CC2)c2ccccc21` (stereo unspecified) came in with an Activity of 36.6%.

The compound `Cc1ccc2c(c1)CN(CCCC1OC(=O)c3ccccc31)CC2` (stereo unspecified) gave an Activity of 32.4%.

`O=C1OC(CCCN2CCN(c3nsc4ccccc34)CC2)c2ccccc21` (stereo unspecified) showed an Activity of 15.7%.

In turn, `O=C1OC(CCCN2Cc3ccccc3C2)c2ccccc21` (stereo unspecified) showed an Activity of 26.7%.

`O=C1OC(CCCN2CCc3ccccc3C2c2ccccc2)c2ccccc21` (stereo unspecified): the Activity came to 36.4%.

In turn, `O=C1OC(CCCN2CCc3ccccc32)c2ccccc21` (stereo unspecified) registered an Activity of 24.5%.

The compound `O=C1OC(CCCN2CCc3ccccc3C2)c2ccccc21` (stereo unspecified) came in with an Activity of 22.2%.

In turn, `O=C1OC(CCCN2CCN(c3ncccn3)CC2)c2ccccc21` (stereo unspecified) had an Activity of 30.9%.

Staying with this series, now noted: filed as antagonist.
`NC(=O)c1coc2ccc(N3CCN(CCCC4OC(=O)c5ccccc54)CC3)cc12` (stereo unspecified) displayed an Activity of 47.1%.

`O=C1OC(CCCN2CCN(c3ccccn3)CC2)c2ccccc21` (stereo unspecified) yielded an Activity of 42.2%.

Compound `O=C1OC(CCCN2CCN(c3ccccc3)CC2)c2ccccc21` (stereo unspecified) gave an Activity of 75.4%.

For the compound `O=C1OC(CCCN2CCc3ccccc32)c2ccccc21` (stereo unspecified), the Activity came to 47.1%.

Take `O=C1OC(CCCN2C[C@H]3C[C@@]3(c3ccc(Cl)c(Cl)c3)C2)c2ccccc21` (stereo partly specified): the Activity came out at 76%.

Tested on in a further series: not listed separately
Kind of series: cells. To be noted: Rattus norvegicus, Hippocampal neurone, 6.5 h, read-out: Activity.
With `CC(C(O)c1ccc(O)cc1)N1CCC(Cc2ccccc2)CC1` (stereo unspecified) [IFENPRODIL], the viability at 1 µM turned out to be 77%.

Tested on in a further series: not listed separately
Kind of series: Cytotoxicity against African green monkey Vero cells assessed as reduction in cell viability incubated for 48 hrs by CCK-8 assay.
Details: not given
For the compound `CN(C)CCCC1OC(=O)c2ccccc21` (stereo unspecified), the IC50 at 48 h is more than 300000 nM.

Tested on in another series: not listed separately
Kind of series: Neuroprotective activity against NMDA-induced cell injury in rat Hippocampal neuron cells assessed as cell viability at 10 uM preincubated with compound for 6 hrs followed by NMDA-addition and measured after 0.5 hrs by MTT assay relative to control. To be noted: Hippocampal neurone, 6.5 h, read-out: Activity.
Consider `CC(C(O)c1ccc(O)cc1)N1CCC(Cc2ccccc2)CC1` (stereo unspecified) [IFENPRODIL], for which the viability at 10 µM was 84.8%.

Tested on in a further series: not listed separately
Kind of series: Cytotoxicity against mouse L929 cells assessed as reduction in cell viability incubated for 48 hrs by CCK-8 assay.
Details: not given
`CN(C)CCCC1OC(=O)c2ccccc21` (stereo unspecified): the IC50 at 48 h was more than 300000 nM.
